# In patent US20230381134A1, “COCRYSTALS OF CANNABINOIDS” (PURISYS, LLC, priority 2020, published 2023):
# Tests used:
# [1] = solid, ambient conditions / storage
# Method: PXRD diffractograms were acquired on a PANalytical X'Pert Pro diffractometer using Ni-filtered Cu Ka (45 kV/40 mA) radiation and a step size of 0.03° 2θ and X'celerator™ RTMS (Real Time Multi-Strip) detector. Configuration on the incidental beam side: variable divergence slits (10 mm irradiated length), 0.04 rad Soller slits, fixed anti-scatter slit (0.50°), and 10 mm beam mask. Configuration on the diffracted beam side: variable anti-scatter slit (10 mm observed length) and 0.04 rad Soller slit. Samples were mounted flat on zero-background Si wafers.
# PXRD diffractograms were acquired on a Bruker D8 Advance system (SN:2631) using Cu Ka (40 kV/40 mA) radiation and a step size of 0.03° 2θ and LynxEye detector. Configuration on the incident beam side: Goebel mirror, mirror exit slit (0.2 mm), 2.5 deg Soller slits, beam knife. Configuration on the diffracted beam side: anti-scatter slit (8 mm) and 2.5 deg. Soller slit. Samples were mounted flat on zero-background Si wafers.
# [2] = Solubility of the cannabinol starting material in various solvents
# [3] = biological target: cannabinoid G-protein coupled receptor CB2 (Homo sapiens, UniProt P34972); conditions: cited from earlier work
# CB1 receptor = CB1 receptor (Homo sapiens, UniProt P21554); conditions: cited from earlier work
# Chain of CB1 receptor (P21554 whole entry): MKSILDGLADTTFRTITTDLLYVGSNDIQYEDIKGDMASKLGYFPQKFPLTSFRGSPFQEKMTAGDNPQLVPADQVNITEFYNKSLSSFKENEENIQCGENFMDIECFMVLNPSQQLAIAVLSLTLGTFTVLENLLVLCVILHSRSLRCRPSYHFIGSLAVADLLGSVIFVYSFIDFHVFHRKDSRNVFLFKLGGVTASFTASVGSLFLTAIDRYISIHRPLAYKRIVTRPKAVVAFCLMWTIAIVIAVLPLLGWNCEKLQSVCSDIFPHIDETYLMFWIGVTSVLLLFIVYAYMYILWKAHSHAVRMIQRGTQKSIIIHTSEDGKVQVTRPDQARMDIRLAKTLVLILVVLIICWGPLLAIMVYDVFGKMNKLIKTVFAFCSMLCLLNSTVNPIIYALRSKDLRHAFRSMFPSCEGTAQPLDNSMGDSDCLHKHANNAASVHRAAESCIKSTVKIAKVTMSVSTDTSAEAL
# Chain of cannabinoid G-protein coupled receptor CB2 (P34972 whole entry): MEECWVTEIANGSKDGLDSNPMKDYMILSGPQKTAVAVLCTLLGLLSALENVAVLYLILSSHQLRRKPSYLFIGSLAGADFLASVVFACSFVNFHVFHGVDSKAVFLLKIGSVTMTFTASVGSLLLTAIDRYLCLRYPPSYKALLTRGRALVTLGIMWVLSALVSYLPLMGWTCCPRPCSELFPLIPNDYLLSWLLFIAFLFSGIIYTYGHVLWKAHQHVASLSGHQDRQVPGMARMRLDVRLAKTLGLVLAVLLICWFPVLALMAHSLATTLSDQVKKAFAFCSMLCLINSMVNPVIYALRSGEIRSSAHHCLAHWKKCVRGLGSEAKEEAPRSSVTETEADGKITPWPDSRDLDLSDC
Structure (SMILES),physical stability by PXRD [1],solubility ([2]; water (1% methanol)) [mg/mL],"solubility ([2]; water (1% methanol), 40 °C) [mg/mL]",solubility ([2]; water (denatured with 1% MeOH)) [mg/mL],binding to CB2 [3],affinity for CB2 receptor relative to THC (fold lower) ([3]; relative to THC),affinity for CB1 (CB1 receptor)
CCCCCc1cc(O)c2c(c1)OC(C)(C)c1ccc(C)cc1-2.O=C(O)C1CCCN1 [Mono-L-Proline Cocrystal Group C],physically stable by PXRD for three days at ambient,–,–,–,–,–,–
"CCCCCc1cc(O)c2c(c1)OC(C)(C)c1ccc(C)cc1-2 [cannabinol, 6,6,9-Trimethyl-3-pentyl-benzo[c]chromen-1-ol]",–,< 20,< 20,< 20,preferentially binds,about 3 fold,minimal affinity
